Experimental findings from patent USRE37781E1, “Substituted cyclic carbonyls and derivatives thereof useful as retroviral protease inhibitors” (DuPont Pharmaceuticals Company, priority 1991, dated 2002) are described below.

Each structure is given as a SMILES string.

One assay concerns HIV-1 (RF) in MT-2 cells. The experiment in a line: microbe, parasite or virus in culture. It is filed as cell-based. Particulars: Table 2d; class symbols. Here is the method: DNA Plasmids and in vitro RNA transcripts:
Plasmid pDAB 72 containing both gag and pol sequences of BH10 (bp 113-1816) cloned into PTZ 19R was prepared according to Erickson-Viitanen et al. AIDS Research and Human Retroviruses 1989, 5, 577. The plasmid was linearized with Bam HI prior to the generation of in vitro RNA transcripts using the Riboprobe Gemini system II kit (Promega) with T7 RNA polymerase. Synthesized RNA was purified by treatment with RNase free DNAse (Promega), phenol-chloroform extraction, and ethanol precipitation. RNA transcripts were dissolved in water, and stored at −70° C. The concentration of RNA was determined from the A260.
Biotinylated capture probes were purified by HPLC after synthesis on an Applied Biosystems (Foster City, Calif.) DNA synthesizer by addition of biotin to the 5′ terminal end of the oligonucleotide, using the biotin-phosphoramidite reagent of Cocuzza, Tet. Lett. 1989, 30, 6287. The gag biotinylated capture probe (5-biotin-[…] 3′) was complementary to nucleotides 889-912 of HXB2 and the pol biotinylated capture probe (5′-biotin-[…] 3′) was complementary to nucleotides 2374-2395 of HXB2. Alkaline phosphatase conjugated oligonucleotides used as reporter probes were prepared by Syngene (San Diego, Calif.). The pol reporter probe (5′ […] 3′) was complementary to nucleotides 2403-2425 of HXB2. The gag reporter probe (5′ […] 3′) was complementary to nucleotides 950-973 of HXB2. All nucleotide positions are those of the GenBank Genetic Sequence Data Bank as accessed through the Genetics Computer Group Sequence Analysis Software Package (Devereau Nucleic Acids Research 1984, 12, 387). The reporter probes were prepared as 0.5μM stocks in 2× SSC (0.3M NaCl, 0.03M sodium citrate), 0.05M Tris pH 8.8, 1 mg/mL BSA. The biotinylated capture probes were prepared as 10 μM stocks in water.
Streptavidin coated plates:
Nunc-immunomodule microtiter plate strips were coated by addition of 200 μL of streptavidin (30 ug/mL, Scripps, La Jolla, Calif.) in freshly prepared 10 mM sodium carbonate (pH 9.6). Plates were incubated overnight at 4° C. Streptavidin solution was aspirated from the wells and a blocking buffer composed of phosphate buffered saline (PBS), 20 mg/mL bovine serum albumin (crystalline, nuclease and protease free, Calbiochem) and 100 mg/mL lactose (Sigma) was added to the plates for 3 hrs at room temperature. Blocking buffer was removed from the wells, which were allowed to dry overnight at room temperature and subsequently stored at 4° C. in zip lock bags with desiccant. For the majority of the compound evaluation experiments, streptavidin coated plates were obtained from Du Pont Biotechnology Systems (Boston, Mass.).
MT-2, CEM, and H9 cells were maintained in RPMI 1640 supplemented with 5% fetal calf serum (FCS), 2 mM L-glutamine and 50 μg/mL gentamycin, all from Gibco. Laboratory strains of HIV-1 (RF, MN and IIIB) were propagated in H9 cells in the same medium. Virus stocks were prepared approximately 1 month after acute infection of H9 cells by clarification of the tissue culture medium and storage of aliquots at −70° C. […] Each aliquot of virus stock used for infection was thawed only once. In some cases, infected H9 cells were shifted to Dulbecco's modified Eagle's medium 3-10 days before collection of virus in order to generate virus stocks in medium with low biotin content. Clinical isolates of HIV that had been passaged once in MT-2 cells were used to infect fresh MT-2 cells in RPMI medium. Three days after infection, cells were pelleted, resuspended and culture continued in Dulbecco's modified Eagle's medium as above. Virus stocks of clinical isolates were prepaid 10-15 days after infection when cytopathic effects were apparent in the culture.
`NNC(=O)c1ccc(CN2C(=O)N(Cc3cccc(C(=O)NN)c3)C(Cc3ccccc3)C(O)C(O)C2Cc2ccccc2)cc1` (stereo not shown) [10N]: the IC90 result is “+++ (+++=<10 μg/mL)”.
On to `O=C1N(Cc2cccc(OCC(O)CO)c2)C(Cc2ccccc2)C(O)C(O)C(Cc2ccccc2)N1Cc1cccc(OCC(O)CO)c1` (stereo not shown) [10T], for which the IC90 result is given as “+++ (+++=<10 μg/mL)”.
On the same count and under the same terms, as for `CCOC(=O)c1cccc(CN2C(=O)N(Cc3cccc(C(=O)OCC)c3)C(Cc3ccccc3)C(O)C(O)C2Cc2ccccc2)c1` (stereo not shown) [10W], the entry is “+ (+=>100 μg/mL)”; as for `O=C1N(Cc2ccc(CO)cc2)C(Cc2ccccc2)C(O)C(O)C(Cc2ccccc2)N1Cc1ccc(CO)cc1` (stereo not shown) [10Z], “++ (++=10 to 100 μg/mL)”.
Regarding `CN(C)C(=O)c1cccc(CN2C(=O)N(Cc3cccc(C(=O)N(C)C)c3)C(Cc3ccccc3)C(O)C(O)C2Cc2ccccc2)c1` (stereo not shown) [11S], the IC90 entry is “+++ (+++=<10 μg/mL)”.

Another assay deals with single-chain tethered dimer of HIV protease (Human immunodeficiency virus 1, UniProt P04585). Kind of assay: biochemical. Particulars: Table 2e; read-out: K4 HPLC. The arrangement: fused on or other part: A second copy of the same protease unit is joined to the first by a short peptide tether, giving one polypeptide. It is filed as biochemical. As to the method:
HIV Protease Inhibition Assay—HPLC Method
Active protease was prepared as described therein by extraction with 67% acetic acid, dilution 33-fold with water, dialysis against water and then against a “refolding buffer” consisting of 20 mM MES, 1 mM dithiothreitol and 10% glycerol. Protease was stored as a stock preparation at 10 uM in refolding buffer.
Substrate: Peptide of sequence: aminobenzoyl-Ala-Thr-His-Gln-Val-Tyr-Phe(NO2)-Val-Arg-Lys-Ala containing p-nitrophenylalanine, was prepared by solid phase synthesis as previously described Cheng et al., op.cit. Stock solutions of 2 mM substrate were prepared in DMSO.
Inhibitory compounds were dissolved in sufficient DMSO to make 3 mM stock solutions. All further dilutions were prepared in “assay buffer”: 1M NaCl, 50 mM MES, pH 5.5, 1 mM EDTA, 1 mM DTT, […] glycerol.
Enzyme reaction: In a 2 ml screw-cap centrifuge tube were added 50 ul protease (final concentration 0.25 nM) and 0.1 ml inhibitory compound (final concentration […]). After 15 min preincubation at room temperature, the reaction was started with the addition of 0.05 ml substrate (final concentration 5 uM). Incubation was carried out at 30 C. for 1 hr. The reaction was stopped with 1 ml 0.1M ammonium hydroxide.
HPLC measurement of product formation: The product (aminobenzoyl-Ala-Thr-His-Gln-Val-Tyr) was separated from substrate on a Pharmacia MonoQ anion exchange column. The injection volume was 0.2 ml. The mobile phases were: A (20 mM trisHCl, pH 9.0, 0.02% sodium Azide, 10% acetonitrile), B (20 mM tris HCl, pH 9.0, 0.02% sodium azide, 0.5M ammonium formate, 10% acetonitrile). The mobile phases were pumped at 1 ml/min, with a gradient from 0 to 30% B in 5 min, 100% B for 4 min to wash the column, and a re-equilibration for 4 min. The retention time of the product was 3.6 min. Detection with a Shimadzu model RF535 fluorescence monitor was at 330 nm (excitation) and 430 (emission).
With `CC(C)CC1C(O)C(O)C(CC(C)C)N(CC2CC2)C(=O)N1CC1CC1` (stereo not shown) [Example 16J], the Ki was less than 0.01 µM.
`CSc1ccc(CC2C(O)C(O)C(Cc3ccc(SC)cc3)N(Cc3ccccc3)C(=O)N2Cc2ccccc2)cc1` (stereo not shown) [Example 16Q]: the Ki is less than 0.01 µM.
Take `COc1cccc(CN2C(=O)N(Cc3cccc(OC)c3)C(Cc3ccccc3OC)C(O)C(O)C2Cc2ccccc2OC)c1` (stereo not shown) [Example 16R]: the Ki was in the range of 0.01 to 1 µM.
Turning to `COc1ccccc1CC1C(O)C(O)C(Cc2ccccc2OC)N(CC2CC2)C(=O)N1CC1CC1` (stereo not shown) [Example 16S], the Ki lay in the range of 0.01 to 1 µM.
Turning to `COc1ccccc1CC1C(O)C(O)C(Cc2ccccc2OC)N(Cc2ccccc2)C(=O)N1Cc1ccccc1` (stereo not shown) [Example 16T], the Ki fell in the range of 0.01 to 1 µM.
Take `CCCCCCN1C(=O)N(CCCCCC)C(C(C)C)C(O)C(O)C1C(C)C` (stereo not shown) [Example 16X]: the Ki is less than 0.01 µM.
On the same count and under the same terms, as for `O=C1N(Cc2ccccc2)C(Cc2c[nH]c3ccccc23)C(O)C(O)C(Cc2c[nH]c3ccccc23)N1Cc1ccccc1` (stereo not shown) [Example 16Y], the figure is 0.01 to 1 µM.
Still for that read-out and setting: then `CC(C)CC1C(O)C(O)C(CC(C)C)N(Cc2ccccc2)C(=O)N1Cc1ccccc1` (stereo not shown) [Example 16Z], with 0.01 to 1 µM.

The same assay, now with this note: Table 2f; read-out: HPLC Ki.
As for `ON=C1N(Cc2ccccc2)C(Cc2ccccc2)C(O)C(O)C(Cc2ccccc2)N1Cc1ccccc1` (stereo not shown) [Example 17A], the Ki was 0.01 to 1 µM.

The same assay, now with this note: Table 2d; class symbols; read-out: HPLC K1.
As for `NNC(=O)c1ccc(CN2C(=O)N(Cc3cccc(C(=O)NN)c3)C(Cc3ccccc3)C(O)C(O)C2Cc2ccccc2)cc1` (stereo not shown) [10N], the Ki was less than 0.01 µM.
Turning to `O=C1N(Cc2cccc(OCC(O)CO)c2)C(Cc2ccccc2)C(O)C(O)C(Cc2ccccc2)N1Cc1cccc(OCC(O)CO)c1` (stereo not shown) [10T], the Ki is less than 0.01 µM.
For `CCOC(=O)c1cccc(CN2C(=O)N(Cc3cccc(C(=O)OCC)c3)C(Cc3ccccc3)C(O)C(O)C2Cc2ccccc2)c1` (stereo not shown) [10W], the Ki was less than 0.01 µM.
With `CN(C)C(=O)c1cccc(CN2C(=O)N(Cc3cccc(C(=O)N(C)C)c3)C(Cc3ccccc3)C(O)C(O)C2Cc2ccccc2)c1` (stereo not shown) [11S], the Ki was 0.01 to 1 µM.

Still in this assay, the particulars now being: read-out: HPLC K1; Table 2d; class symbols.
For `O=C1N(Cc2ccc(CO)cc2)C(Cc2ccccc2)C(O)C(O)C(Cc2ccccc2)N1Cc1ccc(CO)cc1` (stereo not shown) [10Z], the Ki was more than 1 µM.

Staying with this assay, now noted: read-out: HPLC Ki; Table 2i.
For the compound `O=C1N(Cc2cccc(O)c2)C(Cc2ccc(F)cc2)C(O)C(O)C(Cc2ccc(F)cc2)N1Cc1cccc(O)c1` (stereo not shown) [Example 20G], the Ki was less than 0.01 µM.

Still in this assay, the particulars now being: second table headed Table 2f; read-out: HPLC Ki.
In the case of `ON=C1N(Cc2ccccc2)C(Cc2ccccc2)C(O)C(O)C(Cc2ccccc2)N1Cc1ccccc1` (stereo not shown) [Example 17A], the Ki lay within 0.01 to 1 µM.

The same assay, now with this note: third table headed Table 2f; read-out: HPLC Ki.
Take `ON=C1N(Cc2ccccc2)C(Cc2ccccc2)C(O)C(O)C(Cc2ccccc2)N1Cc1ccccc1` (stereo not shown) [Example 17A]: the Ki lay within 0.01 to 1 µM.
